Data reported in patent US4871528A, “Pharmaceutical compositions having antineoplastic activity” (Boehringer Biochemia Robin SpA, priority 1986, dated 1989).
Values after ≈ are worked out from the molar mass of the structure shown. Like-named read-outs stand apart in the source and are kept apart here.

What was measured:
[1] = system: advanced and relapsing ovarian tumor; assay: high-dose cis-platinum+GSH in a patient with advanced and relapsing ovarian tumor (Example 3A); assay type: in vivo, human; details: in combination with glutathione
Experimental: However, in the therapeutical practice, the treatment is usually interrupted after 2 or 3 cycles (400 mg/m^2 or 600 mg/m^2) because of the onset of serious side-effects, which can even be fatal.
A patient having an advanced and relapsing ovarian tumor previously treated with cis-platinum, was treated with a combination of cis-platinum+GSH every four weeks. Cis-platinum was administered at a weekly dosage of 200 mg/m^2 (40 mg/m^2 i.v. in normal saline at 1-5 days) for five weeks; GSH was administered i.v. at a dosage of 35 mg/ mg of cis-platinum in normal saline, 30 minutes before administration of cis-platinum. The week of administration (5 administrations) was followed by three weeks of rest, and then the cycle was repeated, and so on, for a total of 5 cycles of administration extending over 17 weeks (5 weeks of actual treatment and 12 weeks (3 weeks X 4) of rest intervals).

[2] = system: advanced and relapsing ovarian tumor; details: administered without glutathione; severe side-effects; cited from earlier work
[3] = system: anthracycline (doxorubicin) induced myocardiotoxicity; assay: Protective effect of glutathione on doxorubicin induced myocardiotoxicity in rats; assay type: in vivo, Sprague Dawley rats; details: doxorubicin 3 mg/kg i.v. and/or GSH i.v. 30 minutes before, every 7 days, 4 times; 8 weeks
Experimental: Twenty-four Sprague Dawley rats, weighing 150-200 g, fed with standard diet and water "ad libitum", were randomized in 4 groups (A,B,C,D) 6 animals each.
Six animals were treated i.v. in the morning (10 am.) with […]) dissolved in normal saline (total injected volume 1 ml/kg). After 30 minutes, the same animals were treated i.v. with doxorubicin (3 mg/kg) dissolved in normal saline (total injected volume 1 ml/kg).
The treatment has been then repeated after 7 days, for 4 consecutive times as a whole.
Six animals were treated similarly to group A, except that glutathione was omitted and substituted with normal saline only.
Six animals were treated similarly to group A, except that doxorubicin was substituted with normal saline only.
Six animals were treated similarly to group A except that both drugs were substituted with normal saline.
The day of the first administration was defined "zero day" and all the animals were killed after 8 weeks from the start of the experiment.
During the experiment, starting from the zero time, all the animals were evaluated weekly for body weight increase, electrocardiographic intervals Q-T and S-T.
After the 8-week experiment, the necroscopic examination allowed to evaluate for each animal the degree of myocardial lesions expressed as an average of vacuolate cells for 10 observation fields at the optical microscope (200 x).

[4] = system: P388 leukemia; assay: Effect of GSH (i.v.) at different doxorubicin dosages (i.p.) on P388 leukemia in mice (Table 2); assay type: in vivo; details: for LTS >60 days / T/C % / TOX: in combination GSH 1500 mg/kg i.v.; for TMS: in combination GSH 1500 mg/kg i.v. 30' before
Experimental: The experimental conditions are similar to that of the previous test.
In these tests, the glutathione has been administered i.v., 30' before of the optional i.p. administration of anthracycline, doxorubicin.
The GSH treated animals received an equal amount of drug (1500 mg/kg) whereas the doxorubicin treated animals received i.p. scalar amounts of anthracycline. The animals consecutively treated with GSH and DX received the two drugs in the ratios of 100, 125, 150 and 200 mg of GSH per mg of DX.

[5] = system: P388 leukemia; assay type: in vivo
Experimental: In the Table 1, the results obtained in CD2F1 mice i.p. treated at the day 0 with […] P388 leukemia cells and treated. i.p. at the day 1 with doxorubicin (DX) (7.5 mg/kg) and/or with GSH (333 mg/mg doxorubicin) are reported.
The GSH was administered 30 min. before DX.
The experiment of the combination GSH+DX was repeated in 2 groups of animals.
TMS means mean survival time in days, T/C % is a percent value of the response of drug treated animals in comparison with the control, taken as 100.
TOX means the number of treated animals died before the control animals. LTS is the number of animals survived at long term (2 months at least).
It should be stressed that the test used an experimental model, the P388 leukemia, characterized by an exclusively intraperitoneal tumor growth, i.e. a growth in the cavity wherein the insulation of the tumoral cells has been carried out.

[6] = system: P388 leukemia; assay: GSH and Doxorubicin effect on P388 leukemia in CD2F1 mice (Table 3); assay type: in vivo; details: GSH 375 mg/kg i.v. and/or DX 7,5 mg/kg i.p. (GSH/DX 50)
Experimental: (§1) The experiments were carried out in a similar way to the experimental scheme of the previous tests 2 and 3. The glutathione was administered i.v. 30, before of doxorubicin. In the tests, whose experimental data are reported in the Tables 3 and 4, the doxorubicin is administered i.p. at a sub-optimal dose level (for the used treatment schedule), in order to evidentiate the synergic effect of the glutathione treatment.
In the test of Table 3 wherein P388 leukemic cells were inoculated, variable dosages of glutathione were used, with respect to the fixed dose of DX (7.5 mg/kg) so as to provide GSH/DX ratios respectively of 20 and 50 mg of GSH per mg of DX.

[7] = system: P388/DX resistant leukemic cells; assay: Effect of GSH and doxorubicin on DX-resistant P388/DX leukemia in CD2F1 mice (Table 4); assay type: in vivo
Experimental: as §1
In the case of inoculation of P388/DX resistant leukemic cells an intermediate dose of glutathione was administered, corresponding to GSH/DX ratio of 25 mg/mg (total dose of GSH 187.5).

[8] = system: P388 leukemia; assay: Effect of GSH (i.v.) at different doxorubicin dosages (i.p.) on P388 leukemia in mice (Table 2); assay type: in vivo; details: DX 12,5 mg/kg i.p.
[9] = system: human HT-29 cells (colon carcinoma); assay: In vitro activity of GSH and methotrexate on human HT-29 cells; assay type: cell-based; details: MTX 24 h, read-out: concentration causing 50% of cell death
Experimental: (5) In vitro activity of GSH and methotrexate (MTX) on human HT-29 cells (colon carcinoma). Human HT-29 cells (colon carcinoma) were used; the cells were pre-treated with GSH at the concentrations of 20 and 40 mg/ml and then exposed to MTX at the concentrations of 0.05, 0.1, 0.5 and 1 mg/ml for 24 h. The concentrations causing 50% of cell death turned out to be 0.12 mg/ml in the absence of GSH and about 0.04-0.06 mg/ml in the presence of GSH. The cells were cultivated in RPMI 1640 medium+10% of fetal calf serum.

[10] = day 1 i.p.: DX 7.5 mg/kg and/or GSH 333 mg/mg doxorubicin
[11] = GSH 187,5 mg/kg i.v. and/or DX 7,5 mg/kg i.p.
[12] = in combination GSH 1500 mg/kg i.v.

Q: For `N.N.[Cl][Pt][Cl]` [CDDP, cis-diamine-dichloroplatinum], which “maximum applicable dosage of cis-platinum” value [1] is on record?
A: about 1000 mg/m^2

Q: And the “maximum dosage of cis-platinum” value [2]?
A: 400-600 mg/m^2

Q: Which results are given for `COc1cccc2c1C(=O)c1c(O)c3c(c(O)c1C2=O)C[C@@](O)(C(=O)CO)C[C@@H]3O[C@H]1C[C@H](N)[C@H](O)[C@H](C)O1` [DX, doxorubicin]?
A: body growth curve, ECG recording (Q-T, S-T), number of vacuolate myocardial cells [3]: toxic and cardiological effects; LTS >60 days ([4]; DX 10 mg/kg i.p.): 0/8; T/C % ([4]; DX 10 mg/kg i.p.): 170%; TOX ([4]; DX 10 mg/kg i.p.): 0/8; TMS ([4]; DX 10 mg/kg i.p.): 17 days; LTS >60 days ([4]; DX 15 mg/kg i.p.): 0/8; T/C % ([4]; DX 15 mg/kg i.p.): 60%; TOX ([4]; DX 15 mg/kg i.p.): 8/8; TMS ([4]; DX 15 mg/kg i.p.): 6 days; LTS >60 days ([4]; DX 7,5 mg/kg i.p.): 0/8; T/C % ([4]; DX 7,5 mg/kg i.p.): 155%; TOX ([4]; DX 7,5 mg/kg i.p.): 0/8; TMS ([4]; DX 7,5 mg/kg i.p.): 15,5 days; LTS >60 days ([4]; DX 12,5 mg/kg i.p.): 0/8; LTS (number of animals survived at long term, 2 months at least) [5, 10]: 0/10; T/C % [5, 10]: 140%; TOX (number of treated animals died before the control animals) [5, 10]: 0/10; TMS (mean survival time) ([5]; day 1 i.p.: DX 7.5 mg/kg and/or GSH 333 mg/mg doxorubicin 30 min. before DX): 16 days; LTS [6]: 0/10; T/C % [6]: 163%; TMS [6]: 16,7 days; TOX [6]: 0/10; LTS [7, 11]: 0/10; T/C % [7, 11]: 118%; TOX [7, 11]: 0/10; TMS ([7]; GSH 187,5 mg/kg i.v. and/or DX 7,5 mg/kg i.p. (GSH/DX 25 mg/mg)): 11,4 days; T/C % [8, 12]: 120%; TOX [8, 12]: 4/8; TMS ([8]; in combination GSH 1500 mg/kg i.v. 30' before): 12 days

Q: What does the source list for `CN(Cc1cnc2nc(N)nc(N)c2n1)c1ccc(C(=O)N[C@@H](CCC(=O)O)C(=O)O)cc1` [MTX, methotrexate]?
A: IC50 ([9]; in the absence of GSH): 120 µg/mL (≈ 264 µM); IC50 ([9]; in the presence of GSH (pre-treated at 20 and 40 mg/ml)): 40 to 60 µg/mL
